Laboratory results published in PubChem BioAssay (NCI).
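GI50 is the concentration that inhibits growth by half. TGI: concentration producing complete growth inhibition.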

Columns and labels:
Experiment in all cases: NCI tumour cell line growth inhibition, 384-well format
[1] = system: 786-0 renal
[2] = system: A498 renal
[3] = system: A549 NSCLC
[4] = system: ACHN renal
[5] = system: BT-549 breast
[6] = system: CAKI-1 renal
[7] = system: CCRF-CEM leukemia
[8] = system: COLO 205 colon
[9] = system: DU-145 prostate
[10] = system: EKVX NSCLC
[11] = system: HCC-2998 colon
[12] = system: HCT-116 colon
[13] = system: HCT-15 colon
[14] = system: HL-60(TB) leukemia
[15] = system: HOP-62 NSCLC
[16] = system: HOP-92 NSCLC
[17] = system: HS 578T breast
[18] = system: HT29 colon
[19] = system: IGROV1 ovarian
[20] = system: K-562 leukemia
[21] = system: KM12 colon
[22] = system: LOX IMVI melanoma
[23] = system: M14 melanoma
[24] = system: MALME-3M melanoma
[25] = system: MCF7 breast
[26] = system: MDA-MB-231 breast
[27] = system: MDA-MB-435 melanoma
[28] = system: MDA-MB-468 breast
[29] = system: MOLT-4 leukemia

`CN(C(=O)c1ccc(F)cc1C(F)(F)F)C1CCN(c2nnc(-c3ccnn3C)c3ccccc23)CC1` was tested, and the GI50 [1] was > 100 µM, the TGI [1] was > 100 µM and the GI50 [2] was 46.7 µM. The TGI [2] was > 100 µM, the GI50 [3] was 44.8 µM and the TGI [3] was > 100 µM. The GI50 [4] was > 100 µM, the TGI [4] was > 100 µM and the GI50 [5] was 26.7 µM. For the same molecule, the TGI [5] was > 100 µM, the GI50 [6] was 47.6 µM and the TGI [6] was > 100 µM. For the same molecule, the GI50 [7] was 12.9 µM, the TGI [7] was 44.8 µM and the GI50 [8] was 42.9 µM. The TGI [8] was > 100 µM, the GI50 [9] was 86.2 µM and the TGI [9] was > 100 µM. The GI50 [10] was 21.5 µM, the TGI [10] was > 100 µM and the GI50 [11] was 22.4 µM. The TGI [11] was > 100 µM, the GI50 [12] was 47.7 µM and the TGI [12] was > 100 µM. The GI50 [13] was 44.4 µM, the TGI [13] was > 100 µM and the GI50 [14] was 18.7 µM. The TGI [14] was 43.9 µM, the GI50 [15] was 13.9 µM and the TGI [15] was > 100 µM. The GI50 [16] was 48.3 µM, the TGI [16] was > 100 µM and the GI50 [17] was > 100 µM. For the same molecule, the TGI [17] was > 100 µM, the GI50 [18] was 76.6 µM and the TGI [18] was > 100 µM. For the same molecule, the GI50 [19] was > 100 µM, the TGI [19] was > 100 µM and the GI50 [20] was 15.1 µM. The TGI [20] was > 100 µM, the GI50 [21] was > 100 µM and the TGI [21] was > 100 µM. The GI50 [22] was 46.3 µM, the TGI [22] was > 100 µM and the GI50 [23] was 58.1 µM. For the same molecule, the TGI [23] was > 100 µM, the GI50 [24] was 65 µM and the TGI [24] was > 100 µM. For the same molecule, the GI50 [25] was 29.9 µM, the TGI [25] was > 100 µM and the GI50 [26] was 47 µM. For the same molecule, the TGI [26] was > 100 µM, the GI50 [27] was 63.1 µM and the TGI [27] was > 100 µM. It also gave a GI50 [28] of 3.8 µM, a TGI [28] of 21.3 µM and a GI50 [29] of 13 µM. For the same molecule, the TGI [29] was 26.4 µM.
